Measurements taken from patent US5948814A, “Genistein for the treatment of cystic fibrosis” (priority 1998, dated 1999).
Several values for one entry are separate records, joined by “and”; a condition that tells them apart may be missing. Identical values can stand only once.

Columns and labels:
[1] = system: mock-transfected NIH/3T3 cells; assay: I- efflux, mock-transfected NIH/3T3 cells; assay type: cell-based
Description: (§1) Cell culture: NIH/3T3-CFTR, NIH/3T3-ΔF508, and NIH/3T3 mock cells (generous gifts from Dr. Richard Mulligan of Children's Hospital and Medical Center, Harvard Medical School) were grown as described [Bradbury et al., 1992] at 37° C. and 5% CO2 in Dulbecco's modified Eagle's medium-H21 supplemented with 10% new-born calf serum, 4 mM glutamine, 25 mM glucose, 100 μg/ml penicillin, 100 μg/ml streptomycin, and 50 μg/ml gentamicin. Cells were maintained in T75 flasks, passaged at 90-95% confluency, and split one to four. For measurements of I^- efflux and in vivo phosphorylation, cells were seeded onto 35-mm dishes at […]. For patch-clamp experiments, cells were grown on coverglass chips in 35-mm culture dishes. Media were replaced 24 hours after plating and thereafter every 48 hours. In all cases, media were changed on the day before I^- efflux studies, NIH/3T3-ΔF508 cells were transferred to 27° C. three days before use, and 1 day prior to study, media were supplemented with 5 mM butyrate. For patch-clamp studies, where a constant level of functional ΔF508-CFTR was not essential, NIH/3T3-ΔF508 cells were cultured at 27° C. for 2-6 days before use. Calu-3 cells were grown and maintained as described by Hunter [1995].
I^- efflux: I^- efflux was measured as described previously [Reenstra et al., 1996]. Briefly, cells were incubated for 30 minutes with 37° C. I^- efflux buffer [(in mM) 141 NaCl, 4 KCl, 1 KH2 PO4, 0.9 MgCl2, 1.7 CaCl2. […] Extracellular ^125 I^- was removed by washing four times with efflux buffer, and the rate of loss of intracellular ^125 I^- was determined by replacing the bathing solution with 37° C. efflux buffer every 60 seconds for 12 minutes. Time-dependent rates of ^125 I^- efflux are calculated from R=ln(^125 I^-t1 /^125 I^-t2)/(t1-t2), where ^125 I^-t is the intracellular ^125 I^- at time t and t1 and t2 are successive time points. […]
To investigate effects of genistein on CFTR activity, the rates of I^- efflux were measured from stably transfected NIH/3T3 cells expressing wt- and ΔF508-CFTR (NIH/33-CFTR and NIH/3T3-ΔF508 cells, respectively). […]

wt-CFTR = wt-CFTR (Homo sapiens, UniProt P13569)
Chain of wt-CFTR (P13569 whole entry): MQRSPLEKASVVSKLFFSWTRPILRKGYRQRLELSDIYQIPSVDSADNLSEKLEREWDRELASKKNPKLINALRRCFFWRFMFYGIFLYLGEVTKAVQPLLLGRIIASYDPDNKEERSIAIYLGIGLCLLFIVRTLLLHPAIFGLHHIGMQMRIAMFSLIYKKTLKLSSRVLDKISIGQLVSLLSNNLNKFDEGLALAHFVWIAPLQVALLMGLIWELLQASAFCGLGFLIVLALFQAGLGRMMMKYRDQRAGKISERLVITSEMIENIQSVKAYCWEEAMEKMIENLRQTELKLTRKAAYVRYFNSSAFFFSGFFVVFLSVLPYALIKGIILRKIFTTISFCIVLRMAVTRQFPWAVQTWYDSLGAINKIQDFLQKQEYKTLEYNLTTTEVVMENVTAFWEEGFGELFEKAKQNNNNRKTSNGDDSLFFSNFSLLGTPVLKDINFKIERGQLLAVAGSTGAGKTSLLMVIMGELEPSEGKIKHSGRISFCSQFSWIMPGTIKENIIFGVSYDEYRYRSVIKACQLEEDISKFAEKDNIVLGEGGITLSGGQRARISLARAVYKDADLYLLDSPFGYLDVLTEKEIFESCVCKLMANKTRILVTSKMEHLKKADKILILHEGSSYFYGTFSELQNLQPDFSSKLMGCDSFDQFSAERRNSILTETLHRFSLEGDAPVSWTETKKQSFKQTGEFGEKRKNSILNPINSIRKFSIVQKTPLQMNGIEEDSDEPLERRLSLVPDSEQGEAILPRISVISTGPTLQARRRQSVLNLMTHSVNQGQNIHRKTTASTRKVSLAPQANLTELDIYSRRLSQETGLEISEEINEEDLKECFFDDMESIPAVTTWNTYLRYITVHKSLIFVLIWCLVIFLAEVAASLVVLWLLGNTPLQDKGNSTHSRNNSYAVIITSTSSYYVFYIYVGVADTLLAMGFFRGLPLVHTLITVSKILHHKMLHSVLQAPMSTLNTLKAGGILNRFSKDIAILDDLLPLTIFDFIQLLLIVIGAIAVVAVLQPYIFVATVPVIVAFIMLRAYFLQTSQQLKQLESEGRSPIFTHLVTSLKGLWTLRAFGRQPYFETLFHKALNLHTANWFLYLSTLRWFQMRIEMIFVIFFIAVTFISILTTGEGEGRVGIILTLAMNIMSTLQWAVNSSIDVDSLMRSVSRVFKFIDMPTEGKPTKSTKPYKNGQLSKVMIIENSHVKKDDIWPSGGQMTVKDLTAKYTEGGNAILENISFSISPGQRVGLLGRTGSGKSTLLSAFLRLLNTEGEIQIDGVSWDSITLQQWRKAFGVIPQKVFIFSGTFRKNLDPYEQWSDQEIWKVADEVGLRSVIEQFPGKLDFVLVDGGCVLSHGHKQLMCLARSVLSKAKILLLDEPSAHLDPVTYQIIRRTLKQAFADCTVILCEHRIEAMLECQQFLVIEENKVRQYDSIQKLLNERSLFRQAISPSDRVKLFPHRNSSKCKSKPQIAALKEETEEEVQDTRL
Description: FIGS. 3A and B show recordings of the potentiation of wild-type (wt) and ΔF508-CFTR channel activity by genistein. […]
as §1
Electrophysiology: CFTR channel currents were recorded at room temperature (~22° C.) with a patch-clamp amplifier (EPC-9, Heka Electronic), filtered at 100 Hz with a built-in three-pole Bessel filter, and stored on videotapes. Data were subsequently refiltered at 25 Hz with an eight-pole Bessel filter (Frequency Device, Havervill, Mass.) and captured onto a hard disk at a sampling rate of 50 Hz. […] Patch-clamp electrodes were made from Corning 7052 glass capillaries (Warner Instrument, Hammed, Conn.). The pipette resistance was usually 3-5 M.OMEGA., and the seal resistance was >20 G.OMEGA.. The pipette solution contained (in mM) 140 N-methyl-D-glucamine chloride (NMDG-C1), 2 MgCl2, 5Ca Cl2, and 10 HEPES (pH 7.4 with NMDG). The superfusion solution contained (in mM) 150 […], 2 MgCl2, 1 EGTA, 5 glucose, and 5 HEPES (pH 7.4 with NaOH). In excised inside-out patch experiments, the bath solution contained (in mM) 130 MNDG-Cl, 10 EGTA, 10 HEPES, 20 tetraethylammonium chloride, 8 Tris, and 2 MgCl2 (pH 7.4 with NMDG). Pipette potential was held at 50 mV relative to the bath. Downward deflections represent channel opening.
Statistics: Mean currents and variance were estimated with Igor (Wavemetrics, Lake Oswego, Oreg.). Parameters for mean current-variance relationships and dose-response curves were obtained from least-square fitting with Sigmaplot (Jandel, San Rafael, Calif.). Po was calculated from patches containing a single channel by dividing the open channel current amplitude with the mean-current amplitude.

ΔF508-CFTR = ΔF508-CFTR (Homo sapiens, UniProt P13569, DEL508-508); assay: Mean current-variance analysis of macroscopic currents, NIH/3T3-ΔF508 cells; assay type: cell-based; set-up: expressed in transfected cells; host or cells: NIH/3T3 cells, stably transfected (NIH/3T3-ΔF508, gift of Dr. Richard Mulligan)
Chain of ΔF508-CFTR (P13569 with tags, fused parts or gaps DEL508-508): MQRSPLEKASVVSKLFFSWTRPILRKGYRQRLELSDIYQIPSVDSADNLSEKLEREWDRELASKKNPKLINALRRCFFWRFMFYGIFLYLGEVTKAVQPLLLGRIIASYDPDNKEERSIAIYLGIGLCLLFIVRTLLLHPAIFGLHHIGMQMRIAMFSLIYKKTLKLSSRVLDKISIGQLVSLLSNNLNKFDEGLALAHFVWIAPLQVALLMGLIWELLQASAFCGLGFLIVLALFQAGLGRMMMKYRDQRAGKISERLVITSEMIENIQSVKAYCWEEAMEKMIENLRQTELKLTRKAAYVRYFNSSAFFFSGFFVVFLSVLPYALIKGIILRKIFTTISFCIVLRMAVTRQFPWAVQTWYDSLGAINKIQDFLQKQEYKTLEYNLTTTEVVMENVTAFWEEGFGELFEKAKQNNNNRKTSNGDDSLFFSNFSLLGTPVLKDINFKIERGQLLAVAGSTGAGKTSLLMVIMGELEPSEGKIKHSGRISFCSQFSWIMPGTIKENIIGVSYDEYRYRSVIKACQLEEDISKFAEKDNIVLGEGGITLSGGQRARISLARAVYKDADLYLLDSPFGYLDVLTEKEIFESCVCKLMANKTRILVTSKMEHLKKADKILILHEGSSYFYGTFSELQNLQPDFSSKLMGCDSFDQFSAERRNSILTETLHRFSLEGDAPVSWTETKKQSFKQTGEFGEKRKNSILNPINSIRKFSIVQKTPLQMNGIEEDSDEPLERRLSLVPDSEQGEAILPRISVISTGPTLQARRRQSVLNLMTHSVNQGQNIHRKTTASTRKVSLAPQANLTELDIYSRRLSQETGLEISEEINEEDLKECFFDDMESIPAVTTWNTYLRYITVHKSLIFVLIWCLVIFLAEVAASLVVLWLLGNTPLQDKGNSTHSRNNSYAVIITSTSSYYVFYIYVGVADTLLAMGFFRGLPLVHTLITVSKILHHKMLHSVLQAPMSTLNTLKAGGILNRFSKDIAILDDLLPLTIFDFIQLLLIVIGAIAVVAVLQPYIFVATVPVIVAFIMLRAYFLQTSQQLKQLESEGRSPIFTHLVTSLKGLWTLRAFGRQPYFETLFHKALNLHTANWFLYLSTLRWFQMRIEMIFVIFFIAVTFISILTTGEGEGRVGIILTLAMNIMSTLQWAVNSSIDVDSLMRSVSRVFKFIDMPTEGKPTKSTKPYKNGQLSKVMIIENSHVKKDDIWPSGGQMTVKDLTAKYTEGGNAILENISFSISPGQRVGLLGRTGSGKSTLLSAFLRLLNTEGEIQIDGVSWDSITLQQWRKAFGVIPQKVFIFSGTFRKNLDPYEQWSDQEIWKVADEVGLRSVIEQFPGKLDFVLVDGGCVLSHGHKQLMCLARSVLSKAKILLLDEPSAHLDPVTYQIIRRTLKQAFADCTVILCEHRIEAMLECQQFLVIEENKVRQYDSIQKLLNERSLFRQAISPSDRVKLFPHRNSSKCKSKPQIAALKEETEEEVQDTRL
Description: FIGS. 4A and B are graphs showing the variance analysis of macroscopic currents for wt- and ΔF508-CFTR wherein (A) is a plot of variance as a function of mean-current amplitude for NIH/3T3-CFTR(.circle-solid.) and NIH/3T3-ΔF508 (.smallcircle.) cells stimulated with 10 μM forskolin plus 50 μM genistein. (B) is a plot of variance as a function of mean-current amplitude for NIH/3T3-CFTR (.circle-solid.) and NIH/3T3-ΔF508 (.smallcircle.) cells stimulated with 10 μM forskolin. Lines are least square regressions.
Electrophysiology: CFTR channel currents were recorded at room temperature (~22° C.) with a patch-clamp amplifier (EPC-9, Heka Electronic), filtered at 100 Hz with a built-in three-pole Bessel filter, and stored on videotapes. Data were subsequently refiltered at 25 Hz with an eight-pole Bessel filter (Frequency Device, Havervill, Mass.) and captured onto a hard disk at a sampling rate of 50 Hz. […] Patch-clamp electrodes were made from Corning 7052 glass capillaries (Warner Instrument, Hammed, Conn.). The pipette resistance was usually 3-5 M.OMEGA., and the seal resistance was >20 G.OMEGA.. […]
Statistics: Mean currents and variance were estimated with Igor (Wavemetrics, Lake Oswego, Oreg.). […] Po was calculated from patches containing a single channel by dividing the open channel current amplitude with the mean-current amplitude. […] Calculated values are presented as means±SE. […]

Row | SMILES | stimulation of I- efflux in mock cells ([1]; 50 μM genistein) | stimulation of I- efflux in mock cells ([1]; 50 μM genistein plus 1 μM forskolin) | macroscopic current (wt-CFTR; 5 μM genistein with 50 nM forskolin) | average increase in mean-current amplitude by genistein (wt-CFTR; 50 μM genistein on 10 μM forskolin, NIH/3T3-CFTR, 50 µM) | increase of forskolin-dependent wt-CFTR activity by genistein (wt-CFTR; 50 μM genistein, NIH/3T3-CFTR cells incubated at 27° C. for 2-6 days, n=13) [fold] | increase of wt-CFTR current by genistein (wt-CFTR; multichannel patches, 50 nM forskolin, n=6) [fold] | slope of variance vs mean current (proportional to 1-Po) (ΔF508-CFTR; 10 μM forskolin and 50 μM genistein) [pA] | stimulation of I- efflux in mock cells ([1]; 1 μM forskolin) | single-channel current steps observed (wt-CFTR; 50 nM forskolin) | slope of variance vs mean current (proportional to 1-Po) (ΔF508-CFTR; 10 μM forskolin) [pA]
1 | O=c1c(-c2ccc(O)cc2)coc2cc(O)cc(O)c12 [Genistein, 4',5,7-trihydroxyisoflavone] | neither 1 μM forskolin, 50 μM genistein, nor 50 μM genistein plus 1 μM forskolin stimulated | neither 1 μM forskolin, 50 μM genistein, nor 50 μM genistein plus 1 μM forskolin stimulated | ~ 7.5 pA | 3.9±0.4 fold and 3.3±0.4 fold | 3.1±0.3 | 21±6 | 0.16±0.03 |  |  | 
2 | C=C[C@@]1(C)CC(=O)[C@]2(O)[C@@]3(C)[C@@H](O)CCC(C)(C)[C@@H]3[C@H](O)[C@H](OC(C)=O)[C@@]2(C)O1 [forskolin] |  |  |  |  |  |  |  | neither 1 μM forskolin, 50 μM genistein, nor 50 μM genistein plus 1 μM forskolin stimulated | ≤ 4 | 0.72±0.06
